A short description of data set [1]: Gravimetric dynamic vapour sorption (moisture sorption/desorption, hygroscopicity). Format: physicochemical. The following applies: 25° C. How it is done: Gravimetric dynamic vapor sorption data (FIG. 5) was obtained using a SMS DVS Intrinsic moisture sorption analyser, controlled by DVS Intrinsic Control software v1.0.0.30. The sample temperature was maintained at 25° C. by the instrument controls. The humidity was controlled by mixing streams of dry and wet nitrogen. The relative humidity was measured by a calibrated Rotronic probe, located near the sample. The weight change of the sample as a function of % RH was constantly monitored by the microbalance (accuracy ±0.005 mg). Approximately 40 mg of sample was placed in a tared mesh stainless basket under ambient conditions. Weight reference was established at the start of an experiment. Moisture sorption isotherm parameters were described as below: [table] The moisture sorption/desorption property of crystalline cefolozane sulfate form 2 is depicted in FIG. 5. A reversible hysteresis associated with around 23% w/w water between 0% and 90% relative humidity (RH) was observed. The DVS isotherm in FIG. 5 is consistent with the presence of two crystalline forms that can be interconverted as function of relative humidity. The presence of ceftolozane sulfate solid Form 1 and ceftolozane sulfate solid Form 2 in the sample tested to obtain the DVS isotherm in FIG. 5 was confirmed by a variable humidity XRPD (VH-XRPD) measurement, based on the XRPD diffraction angles disclosed for Form 1 and Form 2 of ceftolozane sulfate (as disclosed herein). Referring to DVS the isotherm plot in FIG. 5, the lower curve corresponds to ceftolozane sulfate in solid Form 2, and the upper curve is corresponds to ceftolozane sulfate in solid Form 1. The Y-axis of the DVS plot is change in mass. The X-axis of DVS plot refers to the percent relative humidity (RH) of the sample. Reference point 10 in FIG. 5 is the starting point of Form 2 in DVS experiment. The lower portion of the curve in FIG. 5 was obtained by measuring the change in mass of a ceftolozane sulfate sample in solid Form 2 while increasing relative humidity (RH) in the sample, starting at reference point 10 of the lower curve from reference point 10 (Form 2) and moving toward reference point 20 (Form 1). Based on the data collected, the ceftolozane sulfate in the sample converted from Form 2 to Form 1 when the sample was exposed to conditions between 50% RH (reference point 12) and 70% RH (reference point 15). Referring again to the lower curve in FIG. 5, ceftolozane sulfate in Form 1 is present in the sample from 70% RH to reference point 20, where the sample is ceftolozane sulfate is in crystalline Form 1. Referring to the upper curve in FIG. 5, from reference point 20 to reference point 30, the ceftolozane sulfate in the sample material remains as solid Form 1. From reference point 30 to around 20% RH (reference point 35 on the upper curve), the crystalline form of ceftolozane sulfate in the material transforms from Form 1 to Form 2. As the relative humidity of the sample was dropped below about 20% on the upper curve between reference point 30 and reference point 40 (0% RH), the ceftolozane sulfate became more amorphous, with some residual Form 2 remaining at reference point 40. […] Hygroscopicity of ceftolozane sulfate, Form 2 was assessed using the SMS DVS Intrinsic moisture sorption analyzer equipped with a calibrated Rotronic probe. […]

Data set [2] in a line: Melting point experiment (SRS Optimelt), thermal decomposition. Format: physicochemical. Conditions: scan from 100° C. to 400° C.; decomposed prior to melting. How it is done:
Melting point experiment was performed for ceftolozane sulfate form 2 using the SRS Optimelt melting point apparatus. SRS-certified vanillin and phenacetin were used to verify the system performance. The temperature scan from 100° C. to 400° C. was performed for ceftolozane sulfate. The material decomposed prior to melting. The decomposition, as indicated by the distinct change in color, appeared to commence at about 170° C.

The format of data set [3] is physicochemical. As for the experimental part: Thermo Gravimetric Analysis (TGA) experiments were performed on a TA Instruments Discovery Series TGA. The calibration for temperature was carried out using certified indium. Typically, 3-15 mg of a sample was flattened into sealed aluminum pans. Data was acquired for samples with and without a pinhole. For samples with a pinhole, once crimped and sealed, the auto-sampler punched the lid of the sample with its internal puncher right before analysis of the sample. Samples were heated at 20° C./min from 30° C. to 400° C. Dry nitrogen was purged into the system during the experiment at a rate of 50 ml/min. The software used to control the instrument was TRIOS Explorer Software v5.3.0.75. TRIOS software v2.40.1838 or v2.04.04563 was used for data analysis.
Thermogravimetric analysis (TGA) and differential scanning calorimetry (DSC) thermograms are shown in FIG. 3 and FIG. 4, respectively. […] The subsequent exotherm in the thermogram is indicative of decompostion that is consistent with the observation in the melting point experiment.

Molecules are shown by their SMILES. Structures can show the parent of a compound that is named as a salt. Where only a bound is given, the exact number is not on record here.

In the case of `Cn1c(N)c(NC(=O)NCCN)c[n+]1CC1=C(C(=O)O)N2C(=O)[C@@H](NC(=O)/C(=N\OC(C)(C)C(=O)O)c3nsc(N)n3)[C@H]2SC1` [ceftolozane sulfate Form 2], the hygroscopicity result in data set [1] (RH 0 to 90%) is given as “hygroscopic”. Also, in data set [1] (at 90% relative humidity, RH 0 to 90%), the “total uptake of water” value amounted to 23%. Also, the “reversible hysteresis, water” value in data set [1] (between 0% and 90% relative humidity) was “around 23 % w/w”. Also, in data set [1] (decreasing RH to 0%, some residual Form 2), the “relative humidity below which the solid became more amorphous” value is given as “below 20%”. The “temperature at which decomposition commenced (change in color)” value in data set [2] was “about 170 °C”. For the same compound, the “temperature beyond which degradation likely occurs” value in data set [3] is greater than 181 °C.

For the origin of these results see patent US8906898B1, “Solid forms of ceftolozane” (Calixa Therapeutics, Inc., priority 2013, dated 2014).
